Values quoted from earlier work in patent publication US11045483B2, “Pain-killing composition comprising a salicylic acid derivative” (AB7 INNOVATION S.A.S.U, priority 2015, dated 2021).

Conditions: topical application of formulations; Sheree E. Cross et al., 1998

Structure (SMILES): COC(=O)c1ccccc1O [methyl salicylate]
- time that must elapse before detection in the circulatory system: around 60 minutes
